Experimental data: PubChem BioAssay (NCI)
Where “and” joins values, the source holds several entries; their conditions need not be identical. Equal values may be shown once.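 1) Cells in 96-well plates. 2) Compound, 48 h, 5 concentrations. 3) Linear interpolation between surrounding doses. 4) Unreached endpoint = highest concentration. The concentration for 50% growth inhibition is given as GI50. TGI marks complete inhibition of growth.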

The compounds below were run on MDA-MB-435 (assay: NCI anticancer screen, dose series, 48 h).

First: COc1ccccc1/C=N\N/C(N)=N\N=C\c1ccccc1OC
Second: COC(=O)COc1ccccc1/C=C1\N=C(c2ccccc2)N(c2cc(C(F)(F)F)ccc2Cl)C1=O
The GI50 of the first is 1400-fold lower: 23.5 nM for the first, 33100 nM for the second.

Going from `COc1cccc(CC(C)=C(c2ccc(OCCN(C)C)cc2)c2ccc(OCCN(C)C)cc2)c1` to `Cc1ccc(SC2c3ccc(C)cc3Oc3nc(N)c(C#N)c(N)c32)cc1` (stereo not given), the GI50 rises from 682 nM to 1810 nM (2.7-fold).

First: Cn1c(I)c(C#CCO[Si](C)(C)C(C)(C)C)c(=O)[nH]c1=O
Second: CCN1CCN(C(=O)[C@@]2(C)CC[C@]3(C)CC[C@]4(C)C(=CC(=O)[C@@H]5[C@@]6(C)CC[C@H](OC7C[C@@H](O)[C@@H](O)C(C)O7)C(C)(C)[C@@H]6CC[C@]54C)[C@@H]3C2)CC1 (stereo not given in full)
The GI50 of the first is 6.2-fold higher: 13900 nM for the first, 2260 nM for the second.

Going from `O=C(Nc1ccc(Br)cc1F)c1cc(F)ccc1O` to `CN1CCN(C2CCN(C(=O)Nc3cc(Oc4ccc(NC(=O)C5(C(=O)Nc6ccc(F)cc6)CC5)c(F)c4)ccn3)CC2)CC1`, the GI50 rises from 539 nM to 918 nM (1.7-fold).

Compared with `c1ccc(-c2nnc(-c3ccccn3)s2)nc1`, `Nc1nn2cc(F)cnc2c1C(=O)Nc1cncc(F)c1N1CCC(C(=O)N2CCN(C3COC3)CC2)CC1` is lower in GI50: over 100000 nM for the first, 266 nM for the second.

Compared with `COc1ccccc1/C=N\N/C(N)=N\N=C\c1ccccc1OC`, `COC(=O)COc1ccccc1/C=C1\N=C(c2ccccc2)N(c2cc(C(F)(F)F)ccc2Cl)C1=O` is higher in TGI: 0.0824 µM for the first, over 100 µM for the second.

First: COc1cccc(CC(C)=C(c2ccc(OCCN(C)C)cc2)c2ccc(OCCN(C)C)cc2)c1
Second: Cc1ccc(SC2c3ccc(C)cc3Oc3nc(N)c(C#N)c(N)c32)cc1 (stereo not given)
The TGI of the first is 2.5-fold lower: 1.37 µM for the first, 3.4 µM for the second.

`C=C1C(=O)OC2CC(C)C(C(CC(C)=O)OC(C)=O)=CCC12` (stereo not given) and `Cn1c(I)c(C#CCO[Si](C)(C)C(C)(C)C)c(=O)[nH]c1=O` are within 1.5-fold of each other in TGI: 33 µM for the first, 27.8 µM for the second.

Compared with `C[N+](C)(C)CC1CCCc2ccccc2C1=O` (stereo not given), `c1ccc(-c2nnc(-c3ccccn3)s2)nc1` is higher in TGI: 11 µM for the first, over 100 µM for the second.

`O=C(Nc1ccc(Br)cc1F)c1cc(F)ccc1O` and `CN1CCN(C2CCN(C(=O)Nc3cc(Oc4ccc(NC(=O)C5(C(=O)Nc6ccc(F)cc6)CC5)c(F)c4)ccn3)CC2)CC1` cannot be ordered by TGI: 4.41 µM for the first, over 3.27 µM for the second.

Going from `CCN1CCN(C(=O)[C@@]2(C)CC[C@]3(C)CC[C@]4(C)C(=CC(=O)[C@@H]5[C@@]6(C)CC[C@H](OC7C[C@@H](O)[C@@H](O)C(C)O7)C(C)(C)[C@@H]6CC[C@]54C)[C@@H]3C2)CC1` (stereo not given in full) to `Nc1nn2cc(F)cnc2c1C(=O)Nc1cncc(F)c1N1CCC(C(=O)N2CCN(C3COC3)CC2)CC1`, the TGI falls from 8.19 µM to 2.54 µM (3.2-fold).

These compounds were tested on COLO 205 colon (assay: NCI anticancer screen, dose series, 48 h).

Compared with `COc1ccccc1/C=N\N/C(N)=N\N=C\c1ccccc1OC`, `COC(=O)COc1ccccc1/C=C1\N=C(c2ccccc2)N(c2cc(C(F)(F)F)ccc2Cl)C1=O` is 140-fold higher in GI50: 232 nM for the first, 31700 nM for the second.

Going from `COc1cccc(CC(C)=C(c2ccc(OCCN(C)C)cc2)c2ccc(OCCN(C)C)cc2)c1` to `Cc1ccc(SC2c3ccc(C)cc3Oc3nc(N)c(C#N)c(N)c32)cc1` (stereo not given), the GI50 rises from 626 nM to 1710 nM (2.7-fold).

`Cn1c(I)c(C#CCO[Si](C)(C)C(C)(C)C)c(=O)[nH]c1=O` and `CCN1CCN(C(=O)[C@@]2(C)CC[C@]3(C)CC[C@]4(C)C(=CC(=O)[C@@H]5[C@@]6(C)CC[C@H](OC7C[C@@H](O)[C@@H](O)C(C)O7)C(C)(C)[C@@H]6CC[C@]54C)[C@@H]3C2)CC1` (stereo not given in full) are within 1.5-fold of each other in GI50: 6410 nM for the first, 9130 nM for the second.

Going from `O=C(Nc1ccc(Br)cc1F)c1cc(F)ccc1O` to `CN1CCN(C2CCN(C(=O)Nc3cc(Oc4ccc(NC(=O)C5(C(=O)Nc6ccc(F)cc6)CC5)c(F)c4)ccn3)CC2)CC1`, the GI50 falls from 2460 nM to 977 nM (2.5-fold).

First: c1ccc(-c2nnc(-c3ccccn3)s2)nc1
Second: Nc1nn2cc(F)cnc2c1C(=O)Nc1cncc(F)c1N1CCC(C(=O)N2CCN(C3COC3)CC2)CC1
The GI50 of the first is higher: over 100000 nM for the first, 575 nM for the second.

First: COc1ccccc1/C=N\N/C(N)=N\N=C\c1ccccc1OC
Second: COC(=O)COc1ccccc1/C=C1\N=C(c2ccccc2)N(c2cc(C(F)(F)F)ccc2Cl)C1=O
The TGI of the first is lower: 0.631 µM for the first, over 100 µM for the second.

Going from `COc1cccc(CC(C)=C(c2ccc(OCCN(C)C)cc2)c2ccc(OCCN(C)C)cc2)c1` to `Cc1ccc(SC2c3ccc(C)cc3Oc3nc(N)c(C#N)c(N)c32)cc1` (stereo not given), the TGI rises from 1.31 µM to 3.32 µM (2.5-fold).

`C=C1C(=O)OC2CC(C)C(C(CC(C)=O)OC(C)=O)=CCC12` (stereo not given) and `Cn1c(I)c(C#CCO[Si](C)(C)C(C)(C)C)c(=O)[nH]c1=O` are within 1.5-fold of each other in TGI: 21.2 µM for the first, 20 µM for the second.

First: C[N+](C)(C)CC1CCCc2ccccc2C1=O (stereo not given)
Second: c1ccc(-c2nnc(-c3ccccn3)s2)nc1
The TGI of the first is lower: 42.9 µM for the first, over 100 µM for the second.

`O=C(Nc1ccc(Br)cc1F)c1cc(F)ccc1O` and `CN1CCN(C2CCN(C(=O)Nc3cc(Oc4ccc(NC(=O)C5(C(=O)Nc6ccc(F)cc6)CC5)c(F)c4)ccn3)CC2)CC1` cannot be ordered by TGI: 6.56 µM for the first, over 2.19 µM for the second.

Going from `CCN1CCN(C(=O)[C@@]2(C)CC[C@]3(C)CC[C@]4(C)C(=CC(=O)[C@@H]5[C@@]6(C)CC[C@H](OC7C[C@@H](O)[C@@H](O)C(C)O7)C(C)(C)[C@@H]6CC[C@]54C)[C@@H]3C2)CC1` (stereo not given in full) to `Nc1nn2cc(F)cnc2c1C(=O)Nc1cncc(F)c1N1CCC(C(=O)N2CCN(C3COC3)CC2)CC1`, the TGI rises from 20.6 µM to over 100 µM.

These compounds were tested on MOLT-4 leukemia (assay: NCI anticancer screen, dose series, 48 h).

First: COc1ccccc1/C=N\N/C(N)=N\N=C\c1ccccc1OC
Second: COC(=O)COc1ccccc1/C=C1\N=C(c2ccccc2)N(c2cc(C(F)(F)F)ccc2Cl)C1=O
The GI50 of the first is 65-fold lower: 355 nM for the first, 23000 nM for the second.

First: COc1cccc(CC(C)=C(c2ccc(OCCN(C)C)cc2)c2ccc(OCCN(C)C)cc2)c1
Second: C[N+](C)(C)CC1CCCc2ccccc2C1=O (stereo not given)
The GI50 of the first is 2.1-fold higher: 834 nM for the first, 388 nM for the second.

With `Cn1c(I)c(C#CCO[Si](C)(C)C(C)(C)C)c(=O)[nH]c1=O` the GI50 was 1820 nM.

First: COc1ccccc1/C=N\N/C(N)=N\N=C\c1ccccc1OC
Second: COC(=O)COc1ccccc1/C=C1\N=C(c2ccccc2)N(c2cc(C(F)(F)F)ccc2Cl)C1=O
The TGI of the first is 16-fold lower: 3.9 µM for the first, 62.3 µM for the second.

First: COc1cccc(CC(C)=C(c2ccc(OCCN(C)C)cc2)c2ccc(OCCN(C)C)cc2)c1
Second: C=C1C(=O)OC2CC(C)C(C(CC(C)=O)OC(C)=O)=CCC12 (stereo not given)
The TGI of the first is 8.5-fold lower: 2.39 µM for the first, 20.4 µM for the second.

For `Cn1c(I)c(C#CCO[Si](C)(C)C(C)(C)C)c(=O)[nH]c1=O`, the TGI was 4.32 µM.

For `C[N+](C)(C)CC1CCCc2ccccc2C1=O` (stereo not given), the TGI was 7.79 µM and 1.06 µM.
